Source: patent US20040014634A1, “Thieno[2,3-d]pyrimidinediones and their use as pharmaceuticals” (priority 2000, published 2004)
Structures can show the parent of a compound that is named as a salt.

| melting point | SMILES |
| --- | --- |
| 154 °C | Cc1n[nH]c(Sc2c(Cc3ccccc3C(F)(F)F)sc3c2c(=O)n(C)c(=O)n3CC(C)C)n1 (as salt: hydrochloride) [Example 30, 3-Methyl-1-(2-methylpropyl)-5-[(5-methyl-1H-1,2,4-triazol-3yl)thiol-6-[[2-(trifluoromethyl)phenyl]methyl]-thieno[2,3-d]pyrimidine-2,4(1H,3H)-dione dihydrochloride] |
| 186 to 187 °C | CC(C)Cn1c(=O)n(C)c(=O)c2c(Sc3nc[nH]n3)c(Cc3ccccc3C(F)(F)F)sc21 [Example 13, 3-Methyl-1-(2-methylpropyl)-5-(1H-1,2,4-triazol-3-ylthio)-6-[[2-(trifluoromethyl)phenyl]methyl]-thieno[2,3-d]pyrimidine-2,4(1H,3H)-dione] |
| 220 to 222 °C | Cc1nc(Sc2c(C(=O)c3ccccc3C(F)(F)F)sc3c2c(=O)n(C)c(=O)n3CC(C)C)n[nH]1 [Example 18] |
| 123 to 127 °C | CC(C)Cn1c(=O)n(C)c(=O)c2c(Sc3ncc[nH]3)c(C(=O)c3ccccc3C(F)(F)F)sc21 [Example 22, 5-(1H-Imidazol-2-ylthio)-3-methyl-1-(2-methylpropyl)-6-[2-(trifluoromethyl)bezoyl]-thieno[2,3-d]pyrimidine-2,4(1H,3H)-dione] |
| 141 to 144 °C | CC(C)Cn1c(=O)n(C)c(=O)c2c(Sc3nccs3)c(Cc3ccccc3C(F)(F)F)sc21 [Example 29, 3-Methyl-1-(2-methylpropyl)-5-(2-thiazolylthio)-6-[[2-(trifluoromethyl)-phenyl]methyl]-thieno[2,3-d]pyrimidine-2,4(1H,3H)-dione] |
| 221 to 225 °C | CC(C)Cn1c(=O)n(C)c(=O)c2c(Sc3ncc[nH]3)c(Cc3ccccc3C(F)(F)F)sc21 [Example 31, 5-(1H-Imidazol-2-ylthio)-3-methyl-1-(2-methylpropyl)-6-[[2-(trifluoromethyl)phenyl]methyl]-thieno[2,3-d]pyrimidine-2,4(1H,3H)-dione] |
| 169 to 170 °C | CC(C)Cn1c(=O)n(C)c(=O)c2c(Sc3nncs3)c(Cc3ccccc3C(F)(F)F)sc21 [Example 32, 3-Methyl-1-(2-methylpropyl)-5-(1,3,4-thiadiazol-2-ylthio)-6-[2-(trifluoromethyl)benzyl]-thieno[2,3-d]pyrimidine-2,4(1H,3H)dione] |
| 236 to 237 °C | CC(C)Cn1c(=O)n(C)c(=O)c2c(Sc3nnc(N)s3)c(Cc3ccccc3C(F)(F)F)sc21 [Example 33, 5-[(5-Amino-1,3,4-thiadiazol-2-yl)thio]-3-methyl-1-(2-methylpropyl)-6-[2-(trifluoromethyl)benzyl]-thieno[2,3-d]pyrimidine-2,4(1H,3H)-dione] |
| 198 to 202 °C | CC(C)Cn1c(=O)n(C)c(=O)c2c(S(=O)(=O)c3nc[nH]n3)c(C(O)c3ccccc3C(F)(F)F)sc21 (centres unmarked) [Example 37, 6-[Hydroxy[2-(trifluoromethyl)phenyl]methyl]-3-methyl-1-(2-methylpropyl)-5-(1H-1,2,4-triazol-3-ylsulfonyl)-thieno[2,3-d]pyrimidine-2,4(1H,3H)-dione] |
| 148 to 149 °C | CC(C)Cn1c(=O)n(C)c(=O)c2c(S(=O)(=O)c3nncs3)c(Cc3ccccc3C(F)(F)F)sc21 [Example 39, 3-Methyl-1-(2-methylpropl)-5-(1,3,4-thiadiazol-2-ylsulfonyl)-6-[2-(trifluoromethyl)benzyl]-thieno[2,3-d]pyrimidine-2,4(1H,3H)-dione] |
| 174 to 175 °C | CC(C)Cn1c(=O)n(C)c(=O)c2c(Sc3nc(Br)n[nH]3)c(Cc3ccccc3C(F)(F)F)sc21 [Example 40] |
| 205 to 211 °C | CC(C)Cn1c(=O)n(C)c(=O)c2c(Sc3n[nH]c(=O)[nH]3)c(Cc3ccccc3C(F)(F)F)sc21 [Example 41, 3-Methyl-1-(2-methylpropyl)-5-[(5-oxo-4,5-dilydro-1H-1,2,4-triazol-3-yl)thio]-6-[2-(trifluoromethyl)phenylmethyl]-thieno[2,3-d]pyrimidine-2,4(1H,3H)-dione] |
| 166.8 to 167.6 °C | CC(C)Cn1c(=O)n(C)c(=O)c2c(Sc3nccs3)c(C(=O)c3ccnc4ccccc34)sc21 [Example 48, 3-Methyl-1-(2-methylpropyl)-6-(4-quinolinylcarbonyl)-5-(1,3-thiazol-2-ylthio)-thieno[2,3-d]pyrimidine-2,4(1H,3H)-dione] |
| 182.8 to 184 °C | CC(C)Cn1c(=O)n(C)c(=O)c2c(Sc3nccs3)c(C(O)c3ccnc4ccccc34)sc21 (centres unmarked) [Example 49, 6-[Hydroxy-(4-quinolinyl)-methyl]-3-methyl-1-(2-methylpropyl)-5-(1,3-thiazol-2-ylthio)-thieno[2,3-d]pyrimidine-2,4(1H,3H)-dione] |
| 237 to 238.2 °C | CC(C)Cn1c(=O)n(C)c(=O)c2c(Sc3nnc[nH]3)c(Cc3csc4ccccc34)sc21 [Example 50, 6-(1-Benzothien3-ylmethyl)-3-methyl-1-(2-methylpropyl)-5-(4H-1,2,4-triazol-3-ylthio)-thieno[2,3-d]pyrimidine-2,4(1H,3H)-dione] |
| 198 °C | CC(C)Cn1c(=O)n(C)c(=O)c2c(Sc3cccs3)c(Cn3cnc4ccccc43)sc21 [Example 51] |
| 163 °C | CC(C)Cn1c(=O)n(C)c(=O)c2c(Sc3cccs3)c(CN3C(=O)c4ccccc4C3=O)sc21 [Example 54, 6-[(1,3-Dihydro-1,3-dioxo-2H-isoindol-2-yl)methyl]-3-methyl-1-(2-methylpropyl)-5-(2-thienylthio)-thieno[2,3-d]pyrimidine-2,4(1H,3H)-dione] |
